This is an account of results in patent US10189841B2, “Purinones as ubiquitin-specific protease 1 inhibitors” (Forma Therapeutics, Inc., priority 2015, dated 2019).

Chain of USP1 (construct USP1 (I-785, GG670, 671AA)/UAF1 (I-677)-Flag) (O94782 whole entry G670A/G671A): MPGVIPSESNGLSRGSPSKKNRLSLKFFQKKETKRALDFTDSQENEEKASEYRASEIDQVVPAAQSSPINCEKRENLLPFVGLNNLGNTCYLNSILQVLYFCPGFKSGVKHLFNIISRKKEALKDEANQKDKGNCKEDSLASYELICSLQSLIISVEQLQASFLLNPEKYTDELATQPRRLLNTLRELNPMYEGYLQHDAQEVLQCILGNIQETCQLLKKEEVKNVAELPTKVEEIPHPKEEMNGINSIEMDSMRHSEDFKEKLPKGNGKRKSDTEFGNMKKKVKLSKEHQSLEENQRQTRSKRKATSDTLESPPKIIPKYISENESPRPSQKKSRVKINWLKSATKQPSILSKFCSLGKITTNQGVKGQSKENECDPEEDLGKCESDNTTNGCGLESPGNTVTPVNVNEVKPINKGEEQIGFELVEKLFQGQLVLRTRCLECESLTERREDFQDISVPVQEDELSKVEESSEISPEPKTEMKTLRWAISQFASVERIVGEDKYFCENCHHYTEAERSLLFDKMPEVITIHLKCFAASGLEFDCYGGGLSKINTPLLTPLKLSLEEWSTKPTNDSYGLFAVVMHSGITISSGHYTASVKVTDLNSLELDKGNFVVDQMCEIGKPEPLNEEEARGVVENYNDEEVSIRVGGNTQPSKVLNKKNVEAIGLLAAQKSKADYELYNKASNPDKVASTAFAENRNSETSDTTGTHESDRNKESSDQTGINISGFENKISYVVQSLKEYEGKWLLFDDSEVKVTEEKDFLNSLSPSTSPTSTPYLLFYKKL
Chain of USP1 (construct USP1 (I-785, GG670, 671AA)/UAF1 (I-677)-Flag) (Q8TAF3 whole entry partner): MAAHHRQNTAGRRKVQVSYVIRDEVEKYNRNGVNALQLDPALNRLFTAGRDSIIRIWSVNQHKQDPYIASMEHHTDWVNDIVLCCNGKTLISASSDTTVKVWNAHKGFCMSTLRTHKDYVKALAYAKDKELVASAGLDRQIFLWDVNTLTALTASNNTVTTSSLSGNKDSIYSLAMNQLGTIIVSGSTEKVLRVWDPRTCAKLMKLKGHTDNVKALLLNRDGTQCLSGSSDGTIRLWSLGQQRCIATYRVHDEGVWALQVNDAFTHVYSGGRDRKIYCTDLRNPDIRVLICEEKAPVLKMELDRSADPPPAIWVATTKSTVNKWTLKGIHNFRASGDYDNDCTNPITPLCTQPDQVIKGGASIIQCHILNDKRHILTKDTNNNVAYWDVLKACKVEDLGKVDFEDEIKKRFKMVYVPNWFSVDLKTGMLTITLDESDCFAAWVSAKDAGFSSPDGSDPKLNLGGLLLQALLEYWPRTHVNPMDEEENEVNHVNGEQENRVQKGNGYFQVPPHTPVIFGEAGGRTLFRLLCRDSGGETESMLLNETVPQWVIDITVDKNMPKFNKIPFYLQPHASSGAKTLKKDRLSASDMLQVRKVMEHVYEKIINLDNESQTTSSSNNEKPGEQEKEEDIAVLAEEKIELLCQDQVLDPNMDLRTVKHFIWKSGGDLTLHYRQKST

The target in the experiment is USP1 (construct USP1 (I-785, GG670, 671AA)/UAF1 (I-677)-Flag) (Homo sapiens (Human), UniProt O94782, G670A/G671A). Put plainly: Ubiquitin-Rhodamine 110 assay for USP1 activity. It is filed as biochemical. Conditions: USP1/UAF1 25 pM, Ub-Rh110 25 nM, 30 min preincubation. The gist of the method:
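Two formats with the USP1/UAF1 complex and 25 nM ubiquitin-rhodamine 110 in pH 8.0 Tris buffer with calcium, glutathione and detergent. Single-point screening used 10 µM, 100 pM enzyme and 45 min. Inhibition was set against no-enzyme and DMSO wells.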
Molecule `Cn1cc(C(F)(F)F)nc1-c1ccc(Cn2c(=O)[nH]c3cnc(-c4ccccc4[S+](C)[O-])nc32)cc1` (stereo not shown) [Compound I-86, 9-(4-(1-methyl-4-(trifluoromethyl)-1H-imidazol-2-yl)benzyl)-2-(2-(methylsulfinyl)phenyl)-7,9-dihydro-8H-purin-8-one] displayed an IC50 of 200 to 2000 nM.

In turn, `COCCNC(=O)c1ccc(Cn2c(=O)[nH]c3cnc(-c4ccccc4C(C)C)nc32)cc1` [Compound I-352, 4-((2-(2-isopropylphenyl)-8-oxo-7,8-dihydro-9H-purin-9-yl)methyl)-N-(2-methoxyethyl)benzamide] registered an IC50 of 200 to 2000 nM.

`Cn1cc(C(F)(F)F)nc1-c1ccc(Cn2c(=O)n(C)c3cnc(-c4cccnc4OCC(F)(F)F)nc32)cc1` [Compound I-50, 7-methyl-9-(4-(1-methyl-4-(trifluoromethyl)-1H-imidazol-2-yl)benzyl)-2-(2-(2,2,2-trifluoroethoxy)pyridin-3-yl)-7,9-dihydro-8H-purin-8-one]: the IC50 is < 50 nM.

For the molecule `CC(C)c1ccccc1-c1ncc2c(n1)n(Cc1ccc(-c3ncn(C)n3)cc1)c(=O)n2C` [Compound I-272, 2-(2-isopropylphenyl)-7-methyl-9-(4-(1-methyl-1H-1,2,4-triazol-3-yl)benzyl)-7,9-dihydro-8H-purin-8-one], the IC50 is 50 to 200 nM.

Consider `COCCN(C)c1ncccc1-c1ncc2[nH]c(=O)n(Cc3ccc(-c4nc(C(F)(F)F)cn4C)cc3)c2n1` [Compound I-327, 2-(2-((2-methoxyethyl)(methyl)amino)pyridin-3-yl)-9-(4-(1-methyl-4-(trifluoromethyl)-1H-imidazol-2-yl)benzyl)-7,9-dihydro-8H-purin-8-one], for which the IC50 was in the range of 50 to 200 nM.

The molecule `CC(C)c1ccccc1-c1ncc2[nH]c(=O)n(Cc3ccc(C(=O)N4CC(F)C4)cc3)c2n1` [Compound I-386, 9-(4-(3-fluoroazetidine-1-carbonyl)benzyl)-2-(2-isopropylphenyl)-7,9-dihydro-8H-purin-8-one] registered an IC50 of 50 to 200 nM.

With `CC(C)c1ccccc1-c1ncc2[nH]c(=O)n([C@H](C)c3ccccc3)c2n1` [Compound I-155, (R)-2-(2-isopropylphenyl)-9-(1-phenylethyl)-7,9-dihydro-8H-purin-8-one], the IC50 is 50 to 200 nM.

Consider `CC(C)c1ccccc1-c1ncc2[nH]c(=O)n(Cc3ccc(C(=O)N4CCOC[C@@H]4C)cc3)c2n1` [Compound I-405, (S)-2-(2-isopropylphenyl)-9-(4-(3-methylmorpholine-4-carbonyl)benzyl)-7,9-dihydro-8H-purin-8-one], for which the IC50 is 200 to 2000 nM.

Consider `CC(C)c1ccccc1-c1ncc2[nH]c(=O)n(Cc3ccc(-n4cc(-c5ccccn5)nn4)cc3)c2n1` [Compound I-349, 2-(2-isopropylphenyl)-9-(4-(4-(pyridin-2-yl)-1H-1,2,3-triazol-1-yl)benzyl)-7,9-dihydro-8H-purin-8-one], for which the IC50 fell in the range of 200 to 2000 nM.

As for `CC(C)c1ccccc1-c1ncc2[nH]c(=O)n(Cc3ccc(C(=O)N4CCC[C@H]4C)cc3)c2n1` [Compound I-369, (R)-2-(2-isopropylphenyl)-9-(4-(2-methylpyrrolidine-1-carbonyl)benzyl)-7,9-dihydro-8H-purin-8-one], the IC50 is < 50 nM.

`CC(C)c1ncccc1-c1ncc2[nH]c(=O)n([C@H](C)c3ccc(-n4cccn4)cc3)c2n1` [Compound I-14, (R)-9-(1-(4-(1H-pyrazol-1-yl)phenyl)ethyl)-2-(2-isopropylpyridin-3-yl)-7,9-dihydro-8H-purin-8-one] returned an IC50 of 50 to 200 nM.

Turning to `CC(C)c1ccccc1-c1ncc2[nH]c(=O)n(CC3(F)CCN(C(=O)OC(C)(C)C)CC3)c2n1` [Compound I-220, tert-butyl 4-fluoro-4-((2-(2-isopropylphenyl)-8-oxo-7,8-dihydro-9H-purin-9-yl)methyl)piperidine-1-carboxylate], the IC50 lay within 50 to 200 nM.

Molecule `Cc1nc(N2CCC(Cn3c(=O)n(C)c4cnc(-c5ccccc5C(C)C)nc43)CC2)c(C)s1` [Compound I-494, 9-((1-(2,5-dimethylthiazol-4-yl)piperidin-4-yl)methyl)-2-(2-isopropylphenyl)-7-methyl-7,9-dihydro-8H-purin-8-one] registered an IC50 of 50 to 200 nM.

In the case of `Cc1cc(Cl)n(-c2ccc(Cn3c(=O)[nH]c4cnc(-c5cccnc5C(C)C)nc43)cc2)n1` [Compound I-53, 9-(4-(5-chloro-3-methyl-1H-pyrazol-1-yl)benzyl)-2-(2-isopropylpyridin-3-yl)-7,9-dihydro-8H-purin-8-one], the IC50 was < 50 nM.

The molecule `CC(C)c1ccccc1-c1ncc2c(n1)n(Cc1ccc(-c3nc(N4CCOCC4)n(C)n3)cc1)c(=O)n2C` [Compound I-282, 2-(2-isopropylphenyl)-7-methyl-9-(4-(1-methyl-5-morpholino-1H-1,2,4-triazol-3-yl)benzyl)-7,9-dihydro-8H-purin-8-one] displayed an IC50 of 50 to 200 nM.

Take `CCOCCNc1ncccc1-c1ncc2[nH]c(=O)n(Cc3ccc(-c4nc(C(F)(F)F)cn4C)cc3)c2n1` [Compound I-315, 2-(2-((2-ethoxyethyl)amino)pyridin-3-yl)-9-(4-(1-methyl-4-(trifluoromethyl)-1H-imidazol-2-yl)benzyl)-7,9-dihydro-8H-purin-8-one]: the IC50 is < 50 nM.

In the case of `CC(C)c1ccccc1-c1ncc2[nH]c(=O)n([C@H](C)c3ccc(F)cc3)c2n1` [Compound I-178, (R)-9-(1-(4-fluorophenyl)ethyl)-2-(2-isopropylphenyl)-7,9-dihydro-8H-purin-8-one], the IC50 is < 50 nM.

For `Cn1cc(C(F)(F)F)nc1-c1ccc(Cn2c(=O)n(C)c3cnc(-c4cccnc4OC4CC4)nc32)cc1` [Compound I-137, 2-(2-cyclopropoxypyridin-3-yl)-7-methyl-9-(4-(1-methyl-4-(trifluoromethyl)-1H-imidazol-2-yl)benzyl)-7,9-dihydro-8H-purin-8-one], the IC50 was < 50 nM.

In turn, `CC(C)c1ccccc1-c1ncc2[nH]c(=O)n([C@@H](C)c3ccc(-n4nccn4)cc3)c2n1` [Compound I-141, (S)-9-(1-(4-(2H-1,2,3-triazol-2-yl)phenyl)ethyl)-2-(2-isopropylphenyl)-7,9-dihydro-8H-purin-8-one] registered an IC50 of 200 to 2000 nM.

Take `CC(C)c1ccccc1-c1ncc2c(n1)n(Cc1cccc(OCCCN(C)C)c1)c(=O)n2C` [Compound I-245, 9-(3-(3-(dimethylamino)propoxy)benzyl)-2-(2-isopropylphenyl)-7-methyl-7,9-dihydro-8H-purin-8-one]: the IC50 is > 2000 nM.

The molecule `O=c1[nH]c2cnc(-c3ccccc3OC(F)F)nc2n1Cc1ccc(-n2ccc(F)n2)cc1` [Compound I-89, 2-(2-(difluoromethoxy)phenyl)-9-(4-(3-fluoro-1H-pyrazol-1-yl)benzyl)-7,9-dihydro-8H-purin-8-one] displayed a half-inhibitory concentration (IC50) of 200 to 2000 nM.

For `COc1cc(C)n(-c2ccc(Cn3c(=O)n(C)c4cnc(-c5cccnc5C(C)C)nc43)cc2)n1` [Compound I-118, 2-(2-isopropylpyridin-3-yl)-9-(4-(3-methoxy-5-methyl-1H-pyrazol-1-yl)benzyl)-7-methyl-7,9-dihydro-8H-purin-8-one], the IC50 was < 50 nM.

Take `CC(C)c1ccccc1-c1ncc2[nH]c(=O)n(Cc3ccc(-c4nc(N5CCOCC5)n(C)n4)cc3)c2n1` [Compound I-292, 2-(2-isopropylphenyl)-9-(4-(1-methyl-5-morpholino-1H-1,2,4-triazol-3-yl)benzyl)-7,9-dihydro-8H-purin-8-one]: the IC50 is 50 to 200 nM.

Consider `COC1CCCN(C(=O)c2ccc(Cn3c(=O)[nH]c4cnc(-c5ccccc5C(C)C)nc43)cc2)C1` (stereo not shown) [Compound I-401, 2-(2-isopropylphenyl)-9-(4-(3-methoxypiperidine-1-carbonyl)benzyl)-7,9-dihydro-8H-purin-8-one], for which the IC50 fell in the range of 50 to 200 nM.

`CC(C)NC(=O)Nc1ccc(Cn2c(=O)n(C)c3cnc(-c4ccccc4C(C)C)nc32)cc1` [Compound I-481, 1-isopropyl-3-(4-((2-(2-isopropylphenyl)-7-methyl-8-oxo-7,8-dihydro-9H-purin-9-yl)methyl)phenyl)urea] returned an IC50 of 50 to 200 nM.

For `CN(CC(F)(F)F)c1ncccc1-c1ncc2[nH]c(=O)n(Cc3ccc(-c4nc(C(F)(F)F)cn4C)cc3)c2n1` [Compound I-332, 2-(2-(methyl(2,2,2-trifluoroethyl)amino)pyridin-3-yl)-9-(4-(1-methyl-4-(trifluoromethyl)-1H-imidazol-2-yl)benzyl)-7,9-dihydro-8H-purin-8-one], the IC50 is < 50 nM.

Regarding `CC(C)NC(=O)c1ccc(Cn2c(=O)[nH]c3cnc(-c4ccccc4C(C)C)nc32)cc1` [Compound I-356, N-isopropyl-4-((2-(2-isopropylphenyl)-8-oxo-7,8-dihydro-9H-purin-9-yl)methyl)benzamide], the IC50 was < 50 nM.

Molecule `Cc1nc(CN(C)C(=O)c2ccc(Cn3c(=O)[nH]c4cnc(-c5ccccc5C(C)C)nc43)cc2)cs1` [Compound I-371, 4-((2-(2-isopropylphenyl)-8-oxo-7,8-dihydro-9H-purin-9-yl)methyl)-N-methyl-N-((2-methylthiazol-4-yl)methyl)benzamide] had an IC50 of 50 to 200 nM.

As for `CC(C)c1ccccc1-c1ncc2c(n1)n(Cc1ccc(-c3cn(C)nn3)cc1)c(=O)n2C` [Compound I-287, 2-(2-isopropylphenyl)-7-methyl-9-(4-(1-methyl-1H-1,2,3-triazol-4-yl)benzyl)-7,9-dihydro-8H-purin-8-one], the IC50 is < 50 nM.

`CC(C)c1ccccc1-c1ncc2[nH]c(=O)n(Cc3ccc(-n4cc(C(C)(C)O)nn4)cc3)c2n1` [Compound I-345, 9-(4-(4-(2-hydroxypropan-2-yl)-1H-1,2,3-triazol-1-yl)benzyl)-2-(2-isopropylphenyl)-7,9-dihydro-8H-purin-8-one] registered an IC50 of 200 to 2000 nM.

On to `CNC(=O)N1CCC(c2ccn(-c3ccc(Cn4c(=O)[nH]c5cnc(-c6ccccc6C(C)C)nc54)cc3)n2)CC1` [Compound I-480, 4-(1-(4-((2-(2-isopropylphenyl)-8-oxo-7,8-dihydro-9H-purin-9-yl)methyl)phenyl)-1H-pyrazol-3-yl)-N-methylpiperidine-1-carboxamide], for which the IC50 was < 50 nM.

The term IC50 denotes the concentration that inhibits the measured activity by half.
